Series [1] relates to BxPC3. Nature of the series: TC50 assay in different human cell lines (96 h), BxPC3. Format: cell-based. To be noted: BXPC-3, about 96 h, MTS assay. The procedure:
(§1) The 96-well plate with cells incubated with test compound was removed from the 37° C. incubator. The appropriate amounts of the MTS and PMS reagents were removed from the kit and mixed well. The reagents were maintained in the dark due to their light sensitivity. […] The solutions were mixed completely in the wells prior to each reading.
(§2) Plating Cells: Huh7, HEPG2, HEK293, MCF-7, or BxPC3 cells (which can be obtained from American Type Culture Collection, ATCC) were passaged when they were about 70% confluent. […] The cells following passaging were allowed to attach for about 24 hours at 37° C.
(§3) The plates were then returned to the incubator, and cells incubated for about 96 h at 37° C.
(§4) MTS Assay: Assay was carried out as described above.

Series [2] can be described thus: TC50 assay in different human cell lines (96 h), HEK293. Format: cell-based. To be noted: HEK293 cells, about 96 h, MTS assay. As for the experimental part:
as §1, §2, §3, §4
For orientation: Tetrazolium assays rely on reduction of a dye to a coloured formazan, in cell work by metabolically active cells.

Series [3] relates to Huh7 cells. Nature of the series: TC50 assay with inhibition of ENT1, Huh7 cells. Format: cell-based. Conditions: Homo sapiens, Huh-7, 48 h, Huh7 cells (48 h). The procedure:
Plating Cells: Huh7 cells or PK9 cells were seeded in 96-well plates at a density of 5,000 cells/well or 2,500 cells/well, respectively, and the plates were incubated at 37° C. for 24 h to allow for cell attachment.
Treatment with equilibrative nucleoside transporter 1 (ENT1) Inhibitor: The media was then removed from the plates and replaced with media containing 2% FBS, 0.5% DMSO, and either 10 μM dipyramidole or 10 μM S-(4-nitrobenzyl)-6-thioinosine (NBTI).
Treating with Control & Compound 1: After incubation with the ENT1 inhibitor, the cells were treated with each compound at final concentrations ranging from 500 μM to 0 μM in triplicate in media containing 2% FBS, 0.5% DMSO, and either 10 μM dipyridamole or 10 μM NBTI.

Series [4] deals with RPK9 cells. Nature of the series: cells. Conditions: Homo sapiens, 48 h, read-out: TC50 (μM), 48 h treatment. As for the experimental part: Plating Cells: PK9 or RPK9 cells were seeded in 96-well plates at a density of 2,500 cells/well or 2,500 cells/well, respectively, and the plates were incubated at 37° C. for 24 h to allow for cell attachment.
Treating with Control & Compound 1: The cells were treated with each compound at final concentrations ranging from 500 μM to 0 μM in triplicate in media containing 2% FBS and 0.5% DMSO.
The RPK9 cells are described in Saiki, T., et al. (2012) Biochim. Biophys. Res. Commun. 421, 98-104).

The subject of series [5] is HCV replicon. Put plainly: IC50 assay with HCV luciferase replicon cell-line. To be noted: Hepatitis C virus, Huh-7; Huh7 cell line containing HCV replicon with luciferase reporter, 48 h. It counts as cell-based. The source says:
Plating Cells: The cells used in these assays were a liver-derived Huh7 cell line containing an HCV replicon bearing a luciferase reporter gene. The Huh7 cell-line can be obtained from various sources including the Japanese Collection of Research Bioresources (JCRB), Osaka, Japan. The Huh7 cell line containing an HCV replicon bearing a luciferase reporter gene can be prepared essentially as described by Vrolijk J M, et al. (J Virol Methods. (2003) 110(2):201-9). Cells were passaged when they reached about 70% confluency.
These 0.5 mM dilutions were then used to further serially dilute the compounds in DMEM+2% FBS+0.5% DMSO to keep the concentration of DMSO in each condition identical.
The Glo Lysis Buffer and the Bright Glow reagent was allowed to warm to room temperature for about 30 min in the dark. […] The media was removed from cells, and the cells were gently washed with about 100 μL of phosphate buffered saline (PBS). […] It should be noted that luciferin has a half-life of approximately 30 min at room temperature after it is added to the plate. […] The data was saved and used to calculate the percent inhibition of luciferase activity at each drug concentration. […] Curve equation: (m1−m2)/(1+(x/m3)^m4); m1=100; m2=0.01; m3=0.01; m4=0.01; the equation is: […]
(Replicon systems follow genome replication, usually without infectious particles.)

For series [6], the system named is Huh7. Nature of the series: TC50 assay in different human cell lines (96 h), Huh7. It counts as cell-based. To be noted: Huh-7, about 96 h, MTS assay. The procedure: as §1, §2, §3, §4
Series [7] deals with Huh7 cells. Nature of the series: TC50 MTS cell viability assay with Huh7 cells (48 h). Format: cell-based. To be noted: Homo sapiens, Huh-7.
Text: Plating Cells: Huh7 cells (a hepatocellular carcinoma cell-line; these cells can be obtained from the Japanese Collection of Research Bioresources (JCRB), Osaka, Japan) were used to determine the TC50 for representative compounds of the present invention. Briefly, Huh7 cells were passaged when they reached about 70% confluency. The cells were counted using a hemocytometer following dilution of the cells to about 0.5×10^5 cells per mL in DMEM with 10% fetal bovine serum (FBS). The cells were plated in a clear 96-well plate (about 5,000 cells in 100 μL per well). The cells were allowed to attach for about 24 hours at 37° C.
Treating of the cells: The DMEM media without phenol red containing 2% FBS was pre-warmed to 37° C. […] Following dilution, the final DMSO concentration was about 0.5% (v/v). […] The plates were then returned to the incubator and incubated with the cells for 48 h at 37° C.
as §1

In series [8] the test system is CD-1 ICR mice. Put plainly: In vivo toxicology assessment. The procedure:
All in vivo toxicology assays were performed with CD-1 ICR mice (female, 4-6 week old; 20-30 gram body weight). Groups of one to five mice were treated at each dose level. In one study, compound 1 was prepared at concentrations ranging from 0.1 mg/mL to 30 mg/mL in dimethyl sulfoxide (DMSO) and 200 μL of each solution was administered via oral gavage to mice at final doses of 0.67, 2.0, 6.7, 20, 67 and 200 mg/kg.
A second study was carried out using a different vehicle. As above, CD-1 ICR mice (female, 4-6 week old; 20-30 gram body weight) were used. Groups of one to five mice were treated at each dose level. Compound 1 was prepared in Formulation I (5% DMSO/10% Solutol/17% (2-Hydroxypropyl)-β-cyclodextrin in aqueous solution) at concentrations ranging from 0.03 mg/mL to 1.0 mg/mL, and administered orally. Briefly, mice were treated with 200 μL of compound 1 in Formulation I via oral gavage at final doses of 2.4 mg/kg and 8.0 mg/kg. In a parallel study, compound 1 was administered intravenously. Briefly, mice were injected with 100 μL of compound 1 in Formulation I at final doses ranging from 0.12 mg/kg to 4.0 mg/kg.

For orientation: IC50 means the point on the concentration scale where inhibition reaches its midpoint.

`O=C(Nc1ccn(C2O[C@H](CO)[C@@H](O)C2(F)F)c(=O)n1)c1ccc2c(c1)OCO2` (stereo partly drawn) [Compound 1, N-(1-((4R,5R)-3,3-difluoro-4-hydroxy-5-(hydroxymethyl)tetrahydrofuran-2-yl)-2-oxo-1,2-dihydropyrimidin-4-yl)benzo[d][1,3]dioxole-5-carboxamide]: the CC50 in series [1] was 0.72 µM; in series [3] (10 μM NBTI), 440 ± 190 µM; in series [3] (10 μM dipyridamole), 410 ± 110 µM; in series [3] (ENT1 inhibitor: None) it was 473 ± 74 µM; in series [4], greater than 500 µM; in series [6], 7.04 µM. In series [7], the CC50 turned out to be 473 ± 74 µM. Further, the CC50 at 96 h in series [2] stood at 4.09 µM. For the same compound, half-maximal inhibition in series [5] (IC50) was put at 0.06 ± 0.008 µM. For the same compound, the tolerability / toxicity entry is “well-tolerated and no toxicity was observed” in series [8] (IV in Formulation I, 0.12 to 4.0 mg/kg, 48 hour observation); “well-tolerated and no toxicity was observed” in series [8] (oral gavage in DMSO, 0.67-200 mg/kg, 24 hour observation); “well-tolerated and no toxicity was observed” in series [8] (oral gavage in Formulation I, 2.4 and 8.0 mg/kg, 48 hour observation).
